From patent publication US9546160B2, “Hepatitis C virus inhibitors” (Bristol-Myers Squibb Company, priority 2011, dated 2017)
pEC50: −log10 of the molar value. Like-named read-outs stand apart in the source and are kept apart here.

Tested on: HCV 1b genotype
Test: HCV Replicon assay
Format: cell-based
Details: HCV 1b genotype replicon; for pEC50: read-out: Range (EC50 ranges against HCV 1b); for EC50: read-out: 1b (μM) EC50 (Effective 50% inhibitory concentration)
Experimental: An HCV Replicon assay was utilized in the present disclosure, and was prepared, conducted and validated as described in commonly owned PCT/US2006/022197 and in O'Boyle et. al. Antimicrob Agents Chemother. 2005 Apr; 49(4):1346-53. Assay methods incorporating luciferase reporters have also been used as described (Apath.com).
HCV-neo replicon cells and replicon cells containing resistance substitutions in the NS5A region were used to test the currently described family of compounds.

| SMILES | pEC50 | pEC50 (Hepatitis C virus) | other results |
| --- | --- | --- | --- |
| COC(=O)NC(C(=O)N1[C@@H](C)CC[C@H]1c1ncc(-c2ccc(-c3ccc(-c4cnc([C@@H]5CC[C@H](C)N5C(=O)C(NC(=O)OC)C5CCOC6(CCC6)C5)[nH]4)cc3)cc2)[nH]1)C1CCOC2(CCC2)C1 (single isomer, unassigned) [Example 2.1] | 6.85 to 9.05 | – | – |
| COC(=O)NC(C(=O)N1[C@@H](C)CC[C@H]1c1ncc(-c2ccc(-c3ccc(-c4cnc([C@@H]5CC[C@H](C)N5C(=O)C(NC(=O)OC)C5CCOC6(CCC6)C5)[nH]4)cc3)cc2)[nH]1)C1CCOC2(CCC2)C1 (single isomer, unassigned) [Example 2.2] | 6.85 to 9.05 | – | – |
| COC(=O)NC(C(=O)N1[C@@H](C)CC[C@H]1c1ncc(-c2ccc(-c3ccc(-c4cnc([C@@H]5CC[C@H](C)N5C(=O)C(NC(=O)OC)C5CCOC6(CCCC6)C5)[nH]4)cc3)cc2)[nH]1)C1CCOC2(CCCC2)C1 (single isomer, unassigned) [Example 3.1] | 6.85 to 9.05 | – | – |
| COC(=O)NC(C(=O)N1[C@@H](C)CC[C@H]1c1ncc(-c2ccc(-c3ccc(-c4cnc([C@@H]5CC[C@H](C)N5C(=O)C(NC(=O)OC)C5CCOC6(CCCC6)C5)[nH]4)cc3)cc2)[nH]1)C1CCOC2(CCCC2)C1 (single isomer, unassigned) [Example 3.2] | 6.85 to 9.05 | – | – |
| COC(=O)NC(C(=O)N1[C@@H]2C[C@@H]2C[C@H]1c1nc(-c2ccc(-c3ccc(-c4c[nH]c([C@@H]5C[C@H]6C[C@H]6N5C(=O)C(NC(=O)OC)[C@@H]5C[C@@H]6[C@H](C5)C6(F)F)n4)cc3)cc2)c[nH]1)[C@@H]1C[C@@H]2[C@H](C1)C2(F)F (single isomer, unassigned) [QC1.2] | – | – | EC50 (Hepatitis C virus): 0.0049 nM |
| COC(=O)NC(C(=O)N1[C@@H]2C[C@@H]2C[C@H]1c1nc(-c2ccc(-c3ccc(-c4c[nH]c([C@@H]5C[C@H]6C[C@H]6N5C(=O)C(NC(=O)OC)[C@@H]5C[C@@H]6[C@H](C5)C6(F)F)n4)cc3)cc2)c[nH]1)[C@@H]1C[C@@H]2[C@H](C1)C2(F)F (single isomer, unassigned) [QC1.3] | – | 9.05 to 10.00 | – |
| COC(=O)NC(C(=O)N1[C@@H]2C[C@@H]2C[C@H]1c1nc(-c2ccc(-c3ccc(-c4c[nH]c([C@@H]5C[C@H]6C[C@H]6N5C(=O)C(NC(=O)OC)[C@H]5C[C@@H]6C[C@@H]6C5)n4)cc3)cc2)c[nH]1)[C@H]1C[C@@H]2C[C@@H]2C1 (single isomer, unassigned) [QC5.3] | – | 10.00 to 11.30 | EC50 (Hepatitis C virus): 0.00555 nM |
| COC(=O)NC(C(=O)N1[C@@H](C)CC[C@H]1c1nc(-c2ccc(-c3ccc(-c4c[nH]c([C@@H]5CC[C@H](C)N5C(=O)C(NC(=O)OC)C5CCC6(CC6)OC5)n4)cc3)cc2)c[nH]1)C1CCC2(CC2)OC1 (some centres unmarked) [Example 1.1] | – | 10.00 to 11.30 | – |
| COC(=O)NC(C(=O)N1[C@@H](C)CC[C@H]1c1nc(-c2ccc(-c3ccc(-c4c[nH]c([C@@H]5CC[C@H](C)N5C(=O)C(NC(=O)OC)C5CCC6(CC6)OC5)n4)cc3)cc2)c[nH]1)C1CCC2(CC2)OC1 (some centres unmarked) [Example 1.2] | 10.00 to 11.30 | – | – |
| COC(=O)NC(C(=O)N1[C@@H](C)CC[C@H]1c1ncc(-c2ccc(-c3ccc(-c4cnc([C@@H]5CC[C@H](C)N5C(=O)C(NC(=O)OC)C5CC6(CC6)C5)[nH]4)cc3)cc2)[nH]1)C1CC2(CC2)C1 (some centres unmarked) [Example 5.2] | – | 6.85 to 9.05 | – |
| COC(=O)N[C@H](C(=O)C1[C@@H](CF)CC[C@H]1c1ncc(-c2ccc(-c3ccc(-c4cnc([C@@H]5CC[C@H](CF)N5C(=O)[C@@H](NC(=O)OC)[C@H]5CCOC6(CC6)C5)[nH]4)cc3)cc2)[nH]1)[C@H]1CCOC2(CC2)C1 (some centres unmarked) [Example 8] | – | 10.00 to 11.30 | – |
| COC(=O)NC(C(=O)N1CCC[C@H]1c1nc(-c2ccc(-c3c[nH]c([C@@H]4CCCN4C(=O)C(NC(=O)OC)C4CCOC5(CC5)C4)n3)cc2)c[nH]1)C1CCOC2(CC2)C1 (stereo partly drawn) [Example QC14, dimethyl (benzene-1,4-diylbis(1H-imidazole-4,2-diyl(2S)pyrrolidine-2,1-diyl(1-(4-oxaspiro[2.5]oct-7-yl)-2-oxoethane-2,1-diyl)))biscarbamate] | – | 6.85 to 9.05 | – |
| COC(=O)NC(C(=O)N1[C@@H]2C[C@@H]2C[C@H]1c1nc(-c2ccc(-c3ccc(-c4c[nH]c([C@@H]5C[C@H]6C[C@H]6N5C(=O)C(NC(=O)OC)[C@H]5C[C@@H]6[C@H](C5)C6(F)F)n4)cc3)cc2)c[nH]1)[C@H]1C[C@@H]2[C@H](C1)C2(F)F (stereo partly drawn) [QC2.2, dimethyl (4,4′-biphenyldiylbis(1H-imidazole-4,2-diyl(1R,3S,5R)-2-azabicyclo[3.1.0]hexane-3,2-diyl(1-((1R,3r,5S)-6,6-difluorobicyclo[3.1.0]hex-3-yl)-2-oxo-2,1-ethanediyl)))biscarbamate] | 10.00 to 11.30 | – | – |
| COC(=O)NC(C(=O)N1[C@@H]2C[C@@H]2C[C@H]1c1nc(-c2ccc(-c3ccc(-c4c[nH]c([C@@H]5C[C@H]6C[C@H]6N5C(=O)C(NC(=O)OC)[C@H]5C[C@@H]6[C@H](C5)C6(F)F)n4)cc3)cc2)c[nH]1)[C@H]1C[C@@H]2[C@H](C1)C2(F)F (stereo partly drawn) [QC2.3, dimethyl (4,4′-biphenyldiylbis(1H-imidazole-4,2-diyl(1R,3S,5R)-2-azabicyclo[3.1.0]hexane-3,2-diyl(1-((1R,3r,5S)-6,6-difluorobicyclo[3.1.0]hex-3-yl)-2-oxo-2,1-ethanediyl)))biscarbamate] | 6.85 to 9.05 | – | EC50: 1.08 nM |
| COC(=O)NC(C(=O)N1[C@@H]2C[C@@H]2C[C@H]1c1nc(-c2ccc(-c3ccc(-c4c[nH]c([C@@H]5C[C@H]6C[C@H]6N5C(=O)C(NC(=O)OC)[C@@H]5C[C@@H]6C[C@@H]6C5)n4)cc3)cc2)c[nH]1)[C@@H]1C[C@@H]2C[C@@H]2C1 (stereo partly drawn) [QC3.2, dimethyl (4,4′-biphenyldiylbis(1H-imidazole-4,2-diyl(1R,3S,5R)-2-azabicyclo[3.1.0]hexane-3,2-diyl(1-((1R,3r,5S)-bicyclo[3.1.0]hex-3-yl)-2-oxo-2,1-ethanediyl)))biscarbamate] | 10.00 to 11.30 | – | – |
| COC(=O)NC(C(=O)N1[C@@H]2C[C@@H]2C[C@H]1c1nc(-c2ccc(-c3ccc(-c4c[nH]c([C@@H]5C[C@H]6C[C@H]6N5C(=O)C(NC(=O)OC)[C@@H]5C[C@@H]6C[C@@H]6C5)n4)cc3)cc2)c[nH]1)[C@@H]1C[C@@H]2C[C@@H]2C1 (stereo partly drawn) [QC3.3, dimethyl (4,4′-biphenyldiylbis(1H-imidazole-4,2-diyl(1R,3S,5R)-2-azabicyclo[3.1.0]hexane-3,2-diyl(1-((1R,3r,5S)-bicyclo[3.1.0]hex-3-yl)-2-oxo-2,1-ethanediyl)))biscarbamate] | 9.05 to 10.00 | – | – |
| COC(=O)N[C@@H](C(=O)N1C2C[C@@H]2C[C@H]1c1nc(-c2ccc(-c3ccc(-c4c[nH]c([C@@H]5C[C@H]6CC6N5C(=O)[C@H](NC(=O)OC)C5[C@H]6COC[C@@H]56)n4)cc3)cc2)c[nH]1)C1[C@H]2COC[C@@H]12 (stereo partly drawn) [QC4.1, dimethyl (4,4′-biphenyldiylbis(1H-imidazole-4,2-diyl(1R,3S,5R)-2-azabicyclo[3.1.0]hexane-3,2-diyl(1-((1R,5S,6s)-3-oxabicyclo[3.1.0]hex-6-yl)-2-oxo-2,1-ethanediyl)))biscarbamate] | 10.00 to 11.30 | – | – |
| COC(=O)N[C@@H](C(=O)N1C2C[C@@H]2C[C@H]1c1nc(-c2ccc(-c3ccc(-c4c[nH]c([C@@H]5C[C@H]6CC6N5C(=O)[C@H](NC(=O)OC)C5[C@H]6COC[C@@H]56)n4)cc3)cc2)c[nH]1)C1[C@H]2COC[C@@H]12 (stereo partly drawn) [QC4.2, dimethyl (4,4′-biphenyldiylbis(1H-imidazole-4,2-diyl(1R,3S,5R)-2-azabicyclo[3.1.0]hexane-3,2-diyl(1-((1R,5S,6s)-3-oxabicyclo[3.1.0]hex-6-yl)-2-oxo-2,1-ethanediyl)))biscarbamate] | 9.05 to 10.00 | – | – |
